# Target: T1, Human RORγ Ligand Binding Domain (RORγ-LBD) (Homo sapiens, UniProt P51449)
# T1 construct: His6 with thrombin site) (N); made in house; host or cells: E. coli BL21(DE3), modified pET21a vector
# T1 sequence (P51449 263-518): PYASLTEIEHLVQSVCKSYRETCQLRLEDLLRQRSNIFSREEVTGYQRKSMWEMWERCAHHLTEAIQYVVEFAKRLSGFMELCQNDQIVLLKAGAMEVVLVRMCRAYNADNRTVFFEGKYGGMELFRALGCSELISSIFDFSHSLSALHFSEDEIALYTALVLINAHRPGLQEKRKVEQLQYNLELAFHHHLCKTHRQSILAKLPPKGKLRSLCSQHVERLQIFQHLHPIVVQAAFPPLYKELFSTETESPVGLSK
# Assay: Dual Fluorescence Energy Transfer (FRET) assay: co-activator SRC1(2) peptide interaction with RORγ-LBD
# Assay type: biochemical
# Settings: RORγ-LBD / SRC1(2) peptide, read-out: mean pIC50 (converted)
# Description: Dual Fluorescence Energy Transfer (FRET) Assay
# This assay is based on the knowledge that nuclear receptors interact with cofactors (transcription factors) in a ligand dependent manner. RORγ is a typical nuclear receptor in that it has an AF2 domain in the ligand binding domain (LBD) which interacts with co-activators.
# This assay measures ligand-mediated interaction of the co-activator peptide with the purified bacterial-expressed RORγ ligand binding domain (RORγ-LBD) to indirectly assess ligand binding. RORγ has a basal level of interaction with the co-activator SRC1(2) in the absence of ligand, thus, it is possible to find ligands that inhibit or enhance the RORγ/SRC1(2) interaction.
# Human RORγ Ligand Binding Domain (RORγ-LBD) was expressed in E. coli strain BL21(DE3) as an amino-terminal polyhistidine tagged fusion protein. DNA encoding this recombinant protein was sub-cloned into a modified pET21a expression vector (Novagen).
# Approximately 50 g E. coli cell pellet was resuspended in 300 mL of lysis buffer (30 mM imidazole pH 7.0 and 150 mM NaCl). Cells were lysed by sonication and cell debris was removed by centrifugation for 30 minutes at 20,000 g at 4° C. […] The clarified lysate was loaded onto a column (XK-26) packed with ProBond Nickel Chelating resin (InVitrogen), pre-equilibrated with 30 mM imidazole pH 7.0 and 150 mM NaCl. After washing to baseline absorbance with the equilibration buffer, the column was developed with a gradient from 30 to 500 mM imidazole pH 7.0. Column fractions containing the RORγ-LBD protein were pooled and concentrated to a volume of 5 mLs. The concentrated protein was loaded onto a Superdex 200 column pre-equilibrated with 20 mM Tris-Cl pH 7.2 and 200 mM NaCl. The fractions containing the desired RORγ-LBD protein were pooled together.
# Purified RORγ-LBD was buffer exchanged by exhaustive dialysis [3 changes of at least 20 volumes (>8000×)] against PBS [100 mM NaPhosphate, pH 8 and 150 mM NaCl]. […] The modified RORγ-LBD was dialyzed against 2 buffer changes—TBS pH 8.0 containing 5 mM DTT, 2 mM EDTA and 2% sucrose—each at least 20 times of the volume. The modified protein was distributed into aliquots, frozen on dry ice and stored at −80° C. The biotinylated RORγ-LBD was subjected to mass spectrometric analysis to reveal the extent of modification by the biotinylation reagent.
# Biotinylated SRC1(2) solution was prepared by adding an appropriate amount of biotinylated SRC1(2) from the 100 uM stock solution to a buffer containing 10 mM of freshly added DTT from solid to give a final concentration of 40 nM. An appropriate amount of Europium labeled Streptavidin was then added to the biotinylated SRC1(2) solution in a tube to give a final concentration of 10 nM. The tube was inverted gently and incubated for 15 minutes at room temperature. Twenty-fold excess biotin from the 10 mM stock solution was added and the tube was inverted gently and incubated for 10 minutes at room temperature.
# Biotinylated RORγ-LBD solution was prepared by adding an appropriate amount of biotinylated RORγ-LBD from the stock solution to a buffer containing 10 mM of freshly added DTT from solid to give a final concentration of 40 nM. An appropriate amount of APC labeled Streptavidin was then added to the biotinylated RORγ-LBD solution in a tube to give a final concentration of 20 nM. The tube was inverted gently and incubated for 15 minutes at room temperature. Twenty-fold excess biotin from the 10 mM stock solution was then added and the tube was inverted gently and incubated for 10 minutes at room temperature.
# The reaction mixtures were incubated for 5 minutes. […] The plates were incubated for 1 hour and then read on ViewLux in Lance mode for EU/APC.
structure (smiles),measurement,value
"CCc1ccc(N(CC(C)C)S(=O)(=O)c2ccc([C@@H](O)CN3CCOCC3)c(CO)c2)cc1 [Example E126, N-(4-ethylphenyl)-4-(1-hydroxy-2-morpholinoethyl)-3-(hydroxymethyl)-N-isobutylbenzenesulfonamide]",IC50,63.1 nM

# Source: US9428452B2, “Compounds” (Glaxo Group Limited, priority 2012, dated 2016)
